# In patent US12012411B2, “Viral replication inhibitors” (Katholieke Universiteit Leuven, priority 2011, dated 2024):
# pEC50: −log10 of the molar value. Like-named read-outs stand apart in the source and are kept apart here.
# Tests used:
# DENV-2 NGC = test: Antiviral activity against DENV-2 NGC in Vero-B cells (viral RNA load by RT-qPCR); format: cell-based, Dengue virus; conditions: DENV-2 in Vero-B cells, inhibition of viral RNA replication by 50% (Table 3)
# [1] = test system: DENV-4 strain Dak HD 34 460; test: Antiviral activity against DENV-4 in Vero-B cells (viral RNA load by RT-qPCR); format: cell-based, Dengue virus
# [2] = test system: uninfected quiescent Vero-B cells; test: Cytotoxic assay in uninfected quiescent Vero-B cells (MTS/PMS); conditions: 4 days (Table 3)
# [3] = test system: DENV-1 Djibouti strain D1/H/IMTSSA/98/606; test: Antiviral activity against DENV-1 in Vero-B cells (viral RNA load by RT-qPCR); format: cell-based, Dengue virus
# [4] = test system: DENV-3 strain H87 prototype; test: Antiviral activity against DENV-3 in Vero-B cells (viral RNA load by RT-qPCR); format: cell-based, Dengue virus
# in vitro = conditions: African green monkey, uninfected quiescent Vero-B cells
Structure (SMILES),"pEC50 (DENV-2 NGC; Dengue virus, DENV2, Vero B)","pEC50 ([1]; Dengue virus, DENV4, Vero B)",CC50 [2],"pEC50 ([4]; Dengue virus, DENV3, Vero B)","pEC50 ([3]; Dengue virus, DENV1, Vero B)",other results
COc1cccc(NC(C(=O)c2c[nH]c3ccccc23)c2ccccc2C)c1 (stereo not shown) [CPD-348],7.00,5.43,14 µM,–,–,–
"COc1cccc(NC(C(=O)c2c[nH]c3ccccc23)c2cc3ccccn3n2)c1 (single isomer, unassigned) [CPD-325]",–,–,68 µM,–,–,pEC50 (DENV-2 NGC): 7.05; pEC50 [3]: 6.06; pEC50 [4]: 5.74; pEC50 [1]: 5.15
COc1cc(NC(C(=O)c2c[nH]c3ccccc23)c2ccccc2)cc(OCCCO)c1 (stereo not shown) [CPD-361],7.05,–,50 µM,–,–,–
CS(=O)(=O)c1cccc(NC(C(=O)c2c[nH]c3ccccc23)c2ccccc2)c1 (stereo not shown) [CPD-044],5.19,–,65 µM,–,–,–
N#Cc1cccc(NC(C(=O)c2c[nH]c3ccccc23)c2ccccc2)c1 (stereo not shown) [CPD-035],5.68,–,14 µM,–,–,–
COc1cc(NC(C(=O)c2c[nH]c3ccc(CO)cc23)c2ccccc2)cc(OC)c1 (stereo not shown) [CPD-351],6.96,5.02,65 µM,5.69,–,–
COc1cc(NC(C(=O)c2c[nH]c3ccc(CCCO)cc23)c2ccccc2)cc(OC)c1 (stereo not shown) [CPD-353],7.00,5.14,56 µM,6.77,–,–
COc1cccc(NC(C(=O)c2c[nH]c3ccccc23)c2ccncc2)c1 (stereo not shown) [CPD-020],6.85,–,16 µM,–,4.82,–
COc1cccc(NC(C(=O)c2c[nH]c3ccccc23)c2cccc(C)c2)c1 (stereo not shown) [CPD-138],6.57,–,20 µM,5.19,5.49,–
COc1cccc(NC(C(=O)c2c[nH]c3ccccc23)c2ccccc2)c1OC (stereo not shown) [CPD-040],5.37,–,> 129 µM,–,–,–
COc1cccc(NC(C(=O)c2c[nH]c3ccccc23)c2ccccc2)n1 (stereo not shown) [CPD-277],6.54,–,16 µM,–,–,–
O=C(c1c[nH]c2ccccc12)C(Nc1cc(F)cc(F)c1)c1ccccc1 (stereo not shown) [CPD-011],5.78,–,23 µM,–,–,–
COc1cncc(NC(C(=O)c2c[nH]c3ccccc23)c2ccccc2)n1 (stereo not shown) [CPD-252],6.32,5.64,68 µM,4.90,–,–
COc1cc(NC(C(=O)c2c[nH]c3ccccc23)c2ccccc2)cc(OCCN(C)C)c1 (stereo not shown) [CPD-243],5.77,–,13 µM,–,–,–
O=C(c1c[nH]c2ccccc12)C(Nc1cccc(F)c1)c1ccccc1 (stereo not shown) [CPD-008],5.62,–,12 µM,–,–,–
COc1cc(NC(C(=O)c2c[nH]c3cccc(CCCO)c23)c2ccccc2)cc(OC)c1 (stereo not shown) [CPD-357],5.87,–,55 µM,–,–,–
O=C(c1c[nH]c2ccccc12)C(NC1CCCC1)c1ccccc1 (stereo not shown) [CPD-183],4.82,–,86 µM,–,–,–
COc1cccc(NC(C(=O)c2c[nH]c3ccccc23)c2ccc3nccnc3c2)c1 (stereo not shown) [CPD-037],5.92,–,19 µM,–,–,–
O=C(c1c[nH]c2ccccc12)C(Nc1ccc2[nH]c(=O)oc2c1)c1ccccc1 (stereo not shown) [CPD-057],5.22,–,15 µM,–,–,–
COc1cccc(NC(C(=O)c2c[nH]c3ccccc23)c2ccc(S(C)(=O)=O)cc2)c1 (stereo not shown) [CPD-021],5.79,–,> 115 µM,–,–,–
COc1nc(NC(C(=O)c2c[nH]c3ccccc23)c2ccccc2)ns1 (stereo not shown) [CPD-070],5.49,–,90 µM,–,–,–
"COc1cncc(NC(C(=O)c2c[nH]c3ccc(F)cc23)c2ccc(OC)nc2)c1 (single isomer, unassigned) [CPD-323]",–,–,58 µM,–,–,pEC50 (DENV-2 NGC): 6.46; pEC50 [3]: 5.44; pEC50 [4]: 5.30

Structure (SMILES),"pEC50 (DENV-2 NGC; Dengue virus, DENV2, Vero B)","pEC50 ([1]; Dengue virus, DENV4, Vero B)",CC50 [2],"pEC50 ([4]; Dengue virus, DENV3, Vero B)","pEC50 ([3]; Dengue virus, DENV1, Vero B)",other results
COc1ccnc(NC(C(=O)c2c[nH]c3ccccc23)c2ccccc2)c1 (stereo not shown) [CPD-066],5.20,–,95 µM,–,–,–
COc1cccc(NC(C(=O)c2c[nH]c3cc(Cl)ccc23)c2ccccc2)c1 (stereo not shown) [CPD-118],8.00,–,13 µM,5.43,6.36,–
COc1cncc(NC(C(=O)c2c[nH]c3ccccc23)c2ccccc2)c1 (stereo not shown) [CPD-067],7.40,–,20 µM,5.92,> 6.30,–
COc1cc(F)cc(NC(C(=O)c2c[nH]c3ccccc23)c2ccccc2)c1 (stereo not shown) [CPD-015],7.70,–,22 µM,–,–,–
COc1cccc(NC(C(=O)c2c[nH]c3c(F)cccc23)c2ccccc2)c1 (stereo not shown) [CPD-205],7.22,–,14 µM,–,–,–
COc1cccc(NC(C(=O)c2c[nH]c3ccccc23)c2ccco2)c1 (stereo not shown) [CPD-023],6.52,–,16 µM,–,–,–
O=C(c1c[nH]c2ccccc12)C(Nc1cccnc1)c1ccccc1 (stereo not shown) [CPD-016],5.30,–,54 µM,–,–,–
O=C(c1c[nH]c2ccccc12)C(Nc1cccc(OC(F)(F)F)c1)c1ccccc1 (stereo not shown) [CPD-005],6.03,–,5 µM,–,–,–
COc1cc(CO)cc(NC(C(=O)c2c[nH]c3ccccc23)c2ccc(F)nc2)c1 (stereo not shown) [CPD-333],7.40,5.23,–,6.31,6.41,CC50 at 4 days (in vitro): 90 µM
COc1cc(NC(C(=O)c2nn(C)c3ccccc23)c2ccccc2)cc(OC)c1 (stereo not shown) [CPD-265],7.70,5.31,–,5.79,6.54,CC50 at 4 days (in vitro): > 124 µM
COc1cc(NC(C(=O)c2c[nH]c3c(CCO)cccc23)c2ccccc2)cc(OC)c1 (stereo not shown) [CPD-339],7.05,5.53,–,6.09,6.09,CC50 at 4 days (in vitro): 19 µM
COc1cc(CO)cc(NC(C(=O)c2nn(C)c3ccccc23)c2ccccc2)c1 (stereo not shown) [CPD-278],6.57,5.24,–,4.88,5.55,CC50 at 4 days (in vitro): > 125 µM
COc1cccc(NC(C(=O)c2c[nH]c3ccc(C#N)cc23)c2ccccc2)c1 (stereo not shown) [CPD-126],7.15,5.20,–,5.07,5.52,CC50 at 4 days (in vitro): 16 µM
COc1cccc(NC(C(=O)c2c[nH]c3c(F)cccc23)c2cccnc2)c1 (stereo not shown) [CPD-153],6.54,5.43,–,5.65,5.20,CC50 at 4 days (in vitro): > 133 µM
COc1cc(NC(C(=O)c2c[nH]c3ccc(F)cc23)c2ccc(OC)nc2)cc(OC)c1 (stereo not shown) [CPD-206],7.70,5.82,–,6.17,6.43,CC50 at 4 days (in vitro): 12 µM
CN(C)C(=O)c1cccc(NC(C(=O)c2c[nH]c3ccccc23)c2ccccc2)c1 (stereo not shown) [CPD-051],5.61,4.49,–,4.62,5.24,CC50 at 4 days (in vitro): > 125 µM
COc1cc(NC(C(=O)c2c[nH]c3cccc(CO)c23)c2ccccc2)cc(OC)c1 (stereo not shown) [CPD-352],6.54,5.07,71 µM,5.52,–,–
COc1cccc(NC(C(=O)c2c[nH]c3ccccc23)c2ccc(C#N)nc2)c1 (stereo not shown) [CPD-314],6.68,5.06,–,5.55,5.77,CC50 at 4 days (in vitro): 50 µM
COc1ccc(OC)c(NC(C(=O)c2c[nH]c3ccccc23)c2ccccc2)c1 (stereo not shown) [CPD-039],5.61,–,15 µM,–,–,–
COc1cc(NC(C(=O)c2c[nH]c3ccccc23)c2ccc(OC)nc2)cc(OCCO)c1 (stereo not shown) [CPD-291],7.22,5.06,–,6.10,6.10,CC50 at 4 days (in vitro): 53 µM
COc1cc(CO)cc(NC(C(=O)c2c[nH]c3ccccc23)c2ccc(OC)nc2)c1 (stereo not shown) [CPD-283],6.77,5.10,–,5.15,5.55,CC50 at 4 days (in vitro): 56 µM
COc1cccc(NC(C(=O)c2c[nH]c3ccccc23)c2cccc3ccnn23)c1 (stereo not shown) [CPD-043],6.54,5.32,–,5.23,5.47,CC50 at 4 days (in vitro): > 126 µM
